Where two headings read alike, the source gives them in different places.
Tests used:
Experiment in all cases: AK assay 384-well format, Prestwick library screening
[1] = tested on: E. cloacae; format: cell-based, Enterobacter cloacae; details: 50 μM final drug concentration; for fold induction at 50 µM: Enterobacter cloacae, 3 h
[2] = tested on: S. aureus strain USA300-0114; format: cell-based, Staphylococcus aureus; details: 50 μM final drug concentration; for fold induction at 50 µM: Staphylococcus aureus, USA300, 3 h
[3] = tested on: K. pneumoniae; format: cell-based, Klebsiella pneumoniae; details: 50 μM final drug concentration; for fold induction at 50 µM: Klebsiella pneumoniae, 3 h
[4] = tested on: E. coli; format: cell-based, Escherichia coli; details: 50 μM final drug concentration; for fold induction at 50 µM: Escherichia coli, 3 h
[5] = tested on: A. baumannii strain 98-37-09; format: cell-based, Acinetobacter baumannii; details: 50 μM final drug concentration; for fold induction at 50 µM: Acinetobacter baumannii, 983709, 3 h
[6] = tested on: P. aeruginosa; format: cell-based, Pseudomonas aeruginosa; details: 50 μM final drug concentration; for fold induction at 50 µM: Pseudomonas aeruginosa, 3 h
[7] = tested on: E. faecium; format: cell-based, Enterococcus faecium; details: 50 μM final drug concentration; for fold induction at 50 µM: Enterococcus faecium, 3 h
[8] = planktonic E. cloacae, cutoff for positive-scoring molecules 3-fold increase, read-out: AK-based Prestwick Library Screening Results, E. cloacae (increase in extracellular AK activity)
[9] = planktonic S. aureus, cutoff for positive-scoring molecules 3-fold increase, read-out: AK-based Prestwick Library Screening Results, S. aureus (increase in extracellular AK activity)
[10] = planktonic K. pneumoniae, cutoff for positive-scoring molecules 3-fold increase, read-out: AK-based Prestwick Library Screening Results, K. pneumoniae (increase in extracellular AK activity)
[11] = planktonic E. coli, cutoff for positive-scoring molecules 3-fold increase, read-out: AK-based Prestwick Library Screening Results, E. coli (increase in extracellular AK activity)
[12] = planktonic A. baumannii, cutoff for positive-scoring molecules 3-fold increase, read-out: AK-based Prestwick Library Screening Results, A. baumannii (increase in extracellular AK activity)
[13] = planktonic P. aeruginosa, cutoff for positive-scoring molecules 3-fold increase, read-out: AK-based Prestwick Library Screening Results, P. aeruginosa (increase in extracellular AK activity)
[14] = planktonic E. faecium, cutoff for positive-scoring molecules 3-fold increase, read-out: AK-based Prestwick Library Screening Results, E. faecium (increase in extracellular AK activity)
[15] = planktonic E. cloacae, 384-well, cutoff for positive-scoring molecules 3-fold increase, read-out: AK-based Prestwick Library Screening Results: E. cloacae (increase in extracellular AK activity)
[16] = planktonic S. aureus, 384-well, cutoff for positive-scoring molecules 3-fold increase, read-out: AK-based Prestwick Library Screening Results: S. aureus (increase in extracellular AK activity)
[17] = planktonic K. pneumoniae, 384-well, cutoff for positive-scoring molecules 3-fold increase, read-out: AK-based Prestwick Library Screening Results: K. pneumoniae (increase in extracellular AK activity)
[18] = planktonic E. coli, 384-well, cutoff for positive-scoring molecules 3-fold increase, read-out: AK-based Prestwick Library Screening Results: E. coli (increase in extracellular AK activity)
[19] = planktonic A. baumannii, 384-well, cutoff for positive-scoring molecules 3-fold increase, read-out: AK-based Prestwick Library Screening Results: A. baumannii (increase in extracellular AK activity)
[20] = planktonic P. aeruginosa, 384-well, cutoff for positive-scoring molecules 3-fold increase, read-out: AK-based Prestwick Library Screening Results: P. aeruginosa (increase in extracellular AK activity)
[21] = planktonic E. faecium, 384-well, cutoff for positive-scoring molecules 3-fold increase, read-out: AK-based Prestwick Library Screening Results: E. faecium (increase in extracellular AK activity)
[22] = planktonic, cutoff for positive-scoring molecules 3-fold increase, read-out: AK-based Prestwick Library Screening Results, E. cloacae (fold increase in extracellular AK activity)
[23] = planktonic, cutoff for positive-scoring molecules 3-fold increase, read-out: AK-based Prestwick Library Screening Results, S. aureus (fold increase in extracellular AK activity)
[24] = planktonic, cutoff for positive-scoring molecules 3-fold increase, read-out: AK-based Prestwick Library Screening Results, K. pneumoniae (fold increase in extracellular AK activity)
[25] = planktonic, cutoff for positive-scoring molecules 3-fold increase, read-out: AK-based Prestwick Library Screening Results, E. coli (fold increase in extracellular AK activity)
[26] = planktonic, cutoff for positive-scoring molecules 3-fold increase, read-out: AK-based Prestwick Library Screening Results, A. baumannii (fold increase in extracellular AK activity)
[27] = planktonic, cutoff for positive-scoring molecules 3-fold increase, read-out: AK-based Prestwick Library Screening Results, P. aeruginosa (fold increase in extracellular AK activity)
[28] = planktonic, cutoff for positive-scoring molecules 3-fold increase, read-out: AK-based Prestwick Library Screening Results, E. faecium (fold increase in extracellular AK activity)

SMILES: O=C(O)c1cc(/N=N/c2ccc(S(=O)(=O)Nc3ccccn3)cc2)ccc1O [Sulfasalazine]
- fold induction at 50 µM [1, 8]: 1.1
- fold induction at 50 µM [2, 9]: 0.8
- fold induction at 50 µM [3, 10]: 0.7
- fold induction at 50 µM [4, 11]: 0.8
- fold induction at 50 µM [5, 12]: 1.1
- fold induction at 50 µM [6, 13]: 0.8
- fold induction at 50 µM [7, 14]: 0.9

SMILES: Nc1ccc(S(=O)(=O)Nc2nccs2)cc1 [Sulfathiazole]
- fold induction at 50 µM ([1]; 384-well format, cutoff for positive-scoring molecules 3-fold increase, read-out: AK-based Prestwick Library Screening Results, E. cloacae (increase in extracellular AK activity)): 0.7
- fold induction at 50 µM ([2]; 384-well format, cutoff for positive-scoring molecules 3-fold increase, read-out: AK-based Prestwick Library Screening Results, S. aureus (increase in extracellular AK activity)): 0.6
- fold induction at 50 µM ([3]; 384-well format, cutoff for positive-scoring molecules 3-fold increase, read-out: AK-based Prestwick Library Screening Results, K. pneumoniae (increase in extracellular AK activity)): 0.6
- fold induction at 50 µM ([4]; 384-well format, cutoff for positive-scoring molecules 3-fold increase, read-out: AK-based Prestwick Library Screening Results, E. coli (increase in extracellular AK activity)): 0.7
- fold induction at 50 µM ([5]; 384-well format, cutoff for positive-scoring molecules 3-fold increase, read-out: AK-based Prestwick Library Screening Results, A. baumannii (increase in extracellular AK activity)): 1
- fold induction at 50 µM ([6]; 384-well format, cutoff for positive-scoring molecules 3-fold increase, read-out: AK-based Prestwick Library Screening Results, P. aeruginosa (increase in extracellular AK activity)): 0.6
- fold induction at 50 µM ([7]; 384-well format, cutoff for positive-scoring molecules 3-fold increase, read-out: AK-based Prestwick Library Screening Results, E. faecium (increase in extracellular AK activity)): 0.9

SMILES: O=C1C(CC[S+]([O-])c2ccccc2)C(=O)N(c2ccccc2)N1c1ccccc1 (centres unmarked) [Sulfinpyrazone]
- fold induction at 50 µM [1, 15]: 1.2
- fold induction at 50 µM [2, 16]: 3.5
- fold induction at 50 µM [3, 17]: 1
- fold induction at 50 µM [4, 18]: 1.3
- fold induction at 50 µM [5, 19]: 1.2
- fold induction at 50 µM [6, 20]: 1
- fold induction at 50 µM [7, 21]: 1.1

SMILES: Cc1noc(NS(=O)(=O)c2ccc(N)cc2)c1C [Sulfisoxazole]
- fold induction at 50 µM [1, 8]: 0.7
- fold induction at 50 µM [2, 9]: 0.5
- fold induction at 50 µM [3, 10]: 0.5
- fold induction at 50 µM [4, 11]: 0.7
- fold induction at 50 µM [5, 12]: 1
- fold induction at 50 µM [6, 13]: 0.6
- fold induction at 50 µM [7, 14]: 0.9

SMILES: CC1=C(CC(=O)O)c2cc(F)ccc2/C1=C\c1ccc([S+](C)[O-])cc1 (centres unmarked) [Sulindac]
- fold induction at 50 µM [1, 15]: 1.5
- fold induction at 50 µM [2, 16]: 0.8
- fold induction at 50 µM [3, 17]: 1
- fold induction at 50 µM [4, 18]: 1.1
- fold induction at 50 µM [5, 19]: 1.1
- fold induction at 50 µM [6, 20]: 0.8
- fold induction at 50 µM [7, 21]: 0.9

SMILES: COc1cc([S+](C)[O-])ccc1-c1nc2ncccc2[nH]1 (centres unmarked) [Sulmazole]
- fold induction at 50 µM ([1]; planktonic, cutoff for positive 3-fold increase, read-out: AK-based Prestwick Library Screening Results, E. cloacae (fold increase in extracellular AK activity)): 0.3
- fold induction at 50 µM ([2]; planktonic, cutoff for positive 3-fold increase, read-out: AK-based Prestwick Library Screening Results, S. aureus (fold increase in extracellular AK activity)): 0.4
- fold induction at 50 µM ([3]; planktonic, cutoff for positive 3-fold increase, read-out: AK-based Prestwick Library Screening Results, K. pneumoniae (fold increase in extracellular AK activity)): 0.5
- fold induction at 50 µM ([4]; planktonic, cutoff for positive 3-fold increase, read-out: AK-based Prestwick Library Screening Results, E. coli (fold increase in extracellular AK activity)): 0.3
- fold induction at 50 µM ([5]; planktonic, cutoff for positive 3-fold increase, read-out: AK-based Prestwick Library Screening Results, A. baumannii (fold increase in extracellular AK activity)): 0.3
- fold induction at 50 µM ([6]; planktonic, cutoff for positive 3-fold increase, read-out: AK-based Prestwick Library Screening Results, P. aeruginosa (fold increase in extracellular AK activity)): 0.3
- fold induction at 50 µM ([7]; planktonic, cutoff for positive 3-fold increase, read-out: AK-based Prestwick Library Screening Results, E. faecium (fold increase in extracellular AK activity)): 0.9

SMILES: CCN1CCCC1CNC(=O)c1cc(S(N)(=O)=O)ccc1OC (centres unmarked) [Sulpiride]
- fold induction at 50 µM ([1]; planktonic E. cloacae, 384-well, […], read-out: AK-based Prestwick Library Screening Results: E. cloacae (increase in extracellular AK activity)): 1.6
- fold induction at 50 µM ([2]; planktonic S. aureus, 384-well, […], read-out: AK-based Prestwick Library Screening Results: S. aureus (increase in extracellular AK activity)): 1.1
- fold induction at 50 µM ([3]; planktonic K. pneumoniae, 384-well, […], read-out: AK-based Prestwick Library Screening Results: K. pneumoniae (increase in extracellular AK activity)): 1
- fold induction at 50 µM ([4]; planktonic E. coli, 384-well, […], read-out: AK-based Prestwick Library Screening Results: E. coli (increase in extracellular AK activity)): 1
- fold induction at 50 µM ([5]; planktonic A. baumannii, 384-well, […], read-out: AK-based Prestwick Library Screening Results: A. baumannii (increase in extracellular AK activity)): 1
- fold induction at 50 µM ([6]; planktonic P. aeruginosa, 384-well, […], read-out: AK-based Prestwick Library Screening Results: P. aeruginosa (increase in extracellular AK activity)): 1.1
- fold induction at 50 µM ([7]; planktonic E. faecium, 384-well, […], read-out: AK-based Prestwick Library Screening Results: E. faecium (increase in extracellular AK activity)): 1

SMILES: CC(C(=O)O)c1ccc(C(=O)c2cccs2)cc1 (centres unmarked) [Suprofen]
- fold induction at 50 µM [1, 22]: 0.9
- fold induction at 50 µM [2, 23]: 0.6
- fold induction at 50 µM [3, 24]: 0.7
- fold induction at 50 µM [4, 25]: 0.7
- fold induction at 50 µM [5, 26]: 0.8
- fold induction at 50 µM [6, 27]: 0.7
- fold induction at 50 µM [7, 28]: 0.9

SMILES: CCCCC1(COC(=O)CCC(=O)O)C(=O)N(c2ccccc2)N(c2ccccc2)C1=O [Suxibuzone]
- fold induction at 50 µM [1, 22]: 0.8
- fold induction at 50 µM [2, 23]: 0.6
- fold induction at 50 µM [3, 24]: 0.6
- fold induction at 50 µM [4, 25]: 0.6
- fold induction at 50 µM [5, 26]: 0.8
- fold induction at 50 µM [6, 27]: 0.6
- fold induction at 50 µM [7, 28]: 0.9

SMILES: CCOC(=O)Oc1c(OC)cc(C(=O)O[C@@H]2C[C@@H]3CN4CCc5c([nH]c6cc(OC)ccc56)[C@H]4C[C@@H]3[C@H](C(=O)OC)[C@H]2OC)cc1OC [Syrosingopine]
- fold induction at 50 µM [1, 8]: 0.6
- fold induction at 50 µM [2, 9]: 0.3
- fold induction at 50 µM [3, 10]: 0.5
- fold induction at 50 µM [4, 11]: 0.6
- fold induction at 50 µM [5, 12]: 0.6
- fold induction at 50 µM [6, 13]: 0.5
- fold induction at 50 µM [7, 14]: 0.9

SMILES: Cl.O=c1[nH]oc2c1CCNC2 [THIP Hydrochloride]
- AK-based Prestwick Library Screening Results, E. cloacae (fold increase in extracellular AK activity) ([1]; […]): 0.8
- AK-based Prestwick Library Screening Results, S. aureus (fold increase in extracellular AK activity) ([2]; […]): 0.6
- AK-based Prestwick Library Screening Results, K. pneumoniae (fold increase in extracellular AK activity) ([3]; […]): 0.6
- AK-based Prestwick Library Screening Results, E. coli (fold increase in extracellular AK activity) ([4]; […]): 0.6
- AK-based Prestwick Library Screening Results, A. baumannii (fold increase in extracellular AK activity) ([5]; […]): 0.6
- AK-based Prestwick Library Screening Results, P. aeruginosa (fold increase in extracellular AK activity) ([6]; […]): 0.6
- AK-based Prestwick Library Screening Results, E. faecium (fold increase in extracellular AK activity) ([7]; […]): 1.0

From patent publication US10004701B2, “Methods and compositions for treating infection” (UNIVERSITY OF ROCHESTER, priority 2012, dated 2018)
